Among the data in PubChem BioAssay (NCI) are TGI and GI50 values, retold here.

SMILES strings stand for the structures.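 Cells were grown in 96-well plates and exposed to each compound for 48 hours at five concentrations; endpoints were interpolated linearly between bracketing concentrations, or set to the highest concentration if not reached. GI50 = concentration required for 50% inhibition of growth. The concentration for full growth arrest is given as TGI.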 Bounds are passed on as bounds.

Test systems include HCC-2998 colon; A549 NSCLC; SF-295 CNS; CAKI-1 renal; K-562 leukemia; HL-60(TB) leukemia; HOP-62 NSCLC; TK-10 renal; UO-31 renal; CCRF-CEM leukemia.
Common to all, as to assay: NCI tumour cell line growth inhibition, 48 h

Consider `Cc1cccc(C(C)(C)C)c1NC(=O)C(=O)Cc1nc2ccccc2s1`, for which the TGI in the assay on HCC-2998 colon, with A549 NSCLC, in the assay with SF-295 CNS, with CAKI-1 renal, in the assay with K-562 leukemia and in the assay with HL-60(TB) leukemia was more than 100 µM throughout. For the same compound, the TGI with HOP-62 NSCLC, in the assay with TK-10 renal and in the assay with UO-31 renal was more than 100 µM in each case.
In the case of `CCCCCCCCCCCCOC1C(CNCC2OC3OC(C)(C)OC3C2NC(=O)Nc2ccc(C(=O)OCC)cc2)OC2OC(C)(C)OC21` (stereo unspecified), the GI50 in the assay on HCC-2998 colon is 1.8 µM; with A549 NSCLC, 2.23 µM; in the assay on SF-295 CNS, 6.31 µM; in the assay with CAKI-1 renal, 6.74 µM; with K-562 leukemia it was 2.95 µM; in the assay on HL-60(TB) leukemia, 2.65 µM. In addition, the GI50 in the assay with HOP-62 NSCLC was 3.55 µM; with TK-10 renal, 4.13 µM; in the assay with UO-31 renal it was 3.96 µM. The TGI in the assay on HCC-2998 colon was 3.23 µM; in the assay with A549 NSCLC, 4.76 µM; in the assay with SF-295 CNS it was 20 µM; in the assay on CAKI-1 renal, 19.8 µM; in the assay on K-562 leukemia it was more than 100 µM; with HL-60(TB) leukemia, 5.9 µM. Further, the TGI with HOP-62 NSCLC was found to be 13.5 µM; in the assay on TK-10 renal, 15.2 µM; in the assay on UO-31 renal, 13.8 µM.
`CC1=C(CCCOC(=O)NCCCl)C2=C(C)C3(CC3)[C@@](C)(O)C(=O)C2=C1`: the GI50 was 2.35 µM in the assay on HCC-2998 colon; 3.42 µM in the assay with A549 NSCLC; 2.53 µM with SF-295 CNS; 23 µM in the assay with K-562 leukemia; 4.57 µM in the assay with HL-60(TB) leukemia; 2.37 µM with HOP-62 NSCLC. The GI50 was 3.55 µM with TK-10 renal, 9.4 µM in the assay on CCRF-CEM leukemia and 2.02 µM in the assay on UO-31 renal. For the same compound, the TGI with HCC-2998 colon is 7.24 µM; in the assay with A549 NSCLC, more than 100 µM; in the assay with SF-295 CNS, 7.33 µM; with K-562 leukemia, more than 100 µM; in the assay on HL-60(TB) leukemia, more than 100 µM; with HOP-62 NSCLC, 7.42 µM. The TGI is more than 100 µM in the assay on TK-10 renal, more than 100 µM in the assay on CCRF-CEM leukemia and 5.76 µM in the assay with UO-31 renal.
In the case of `CCOC(=O)CCCO`, the TGI with HCC-2998 colon, with A549 NSCLC, in the assay with SF-295 CNS, in the assay on K-562 leukemia, in the assay on HL-60(TB) leukemia and in the assay with TK-10 renal was more than 100 µM each time. Also, the TGI with CCRF-CEM leukemia and in the assay on UO-31 renal was more than 100 µM throughout.
In the case of `O=C(O)/C=C/C(=O)Nc1ncn[nH]1`, the TGI in the assay on HCC-2998 colon, in the assay with A549 NSCLC, with SF-295 CNS, with CAKI-1 renal, in the assay on HOP-62 NSCLC and in the assay with TK-10 renal was more than 100 µM throughout. For the same compound, the TGI with UO-31 renal was more than 100 µM.
In the case of `O=[N+]([O-])c1ccc(NSc2ccccc2)cc1`, the TGI in the assay on HCC-2998 colon is more than 100 µM; with A549 NSCLC, more than 100 µM; with SF-295 CNS, 79 µM; in the assay with K-562 leukemia, more than 100 µM; with HL-60(TB) leukemia, 47.5 µM; in the assay with HOP-62 NSCLC it was more than 100 µM. The TGI in the assay with TK-10 renal, in the assay with CCRF-CEM leukemia and in the assay with UO-31 renal was more than 100 µM each time.
Regarding `COc1ccc(N=Cc2cc(OC)c(OC)c(OC)c2)cc1`, the TGI in the assay on A549 NSCLC, with CAKI-1 renal, in the assay on K-562 leukemia, with HOP-62 NSCLC, with TK-10 renal and with CCRF-CEM leukemia was more than 100 µM throughout. The TGI in the assay on UO-31 renal was more than 100 µM. In addition, the GI50 in the assay on CAKI-1 renal is more than 100 µM.
On to `COc1cc([C@@H]2c3cc4c(cc3[C@@H](NC(=O)c3cccc([N+](=O)[O-])c3)C3COC(=O)[C@@H]32)OCO4)cc(OC)c1O` (stereo partly specified), for which the TGI with HCC-2998 colon was 3.17 µM; with A549 NSCLC it was 1.72 µM; in the assay on SF-295 CNS, 3.99 µM; in the assay with CAKI-1 renal, 4.31 µM; in the assay on K-562 leukemia, more than 100 µM; in the assay with HOP-62 NSCLC, 0.121 µM. Besides, the results for the TGI in the assay on TK-10 renal, in the assay with CCRF-CEM leukemia and in the assay on UO-31 renal were 9.94 µM, more than 100 µM and 12.2 µM, respectively.
In the case of `CCCNC(=O)OCc1c(COC(=O)NCCC)c(-c2ccc(Cl)c(Cl)c2)n2c1CCC2`, the TGI with A549 NSCLC turned out to be 33.2 µM; in the assay on SF-295 CNS it was 12.3 µM; in the assay with CAKI-1 renal, 8.2 µM; in the assay with K-562 leukemia it was 26.6 µM; with HL-60(TB) leukemia it was 7.7 µM; in the assay on HOP-62 NSCLC, 22.3 µM. For the same compound, the figures for the TGI in the assay with TK-10 renal, with CCRF-CEM leukemia and in the assay with UO-31 renal were 18.9 µM, 7.95 µM and 12.6 µM, respectively.
Regarding `O=C1/C(=C/c2ccccc2)CN(C(=O)Oc2ccc(Cl)cc2)C/C1=C\c1ccccc1`, the TGI amounted to 2.99 µM in the assay with HCC-2998 colon; 16.6 µM in the assay on A549 NSCLC; 5.79 µM in the assay with SF-295 CNS; 5.79 µM in the assay on K-562 leukemia; 4.5 µM in the assay on HL-60(TB) leukemia; 14.7 µM in the assay with HOP-62 NSCLC. The TGI in the assay on TK-10 renal amounted to 14.9 µM; with CCRF-CEM leukemia it was 6.39 µM; in the assay with UO-31 renal, 15.5 µM.
With `COC(=O)[C@@H](C)C[C@H](Cc1ccccc1)NC(=O)c1nc([C@@H](C[C@H](C(C)C)N(C)C(=O)[C@@H](NC(=O)[C@H]2CCCN2C)C(C)C)OC(C)=O)sc1C`, the GI50 with HCC-2998 colon was less than 0.0025 µM; in the assay with A549 NSCLC it was 0.0207 µM; in the assay with SF-295 CNS, less than 0.0025 µM; with K-562 leukemia it was less than 0.0025 µM; in the assay with HL-60(TB) leukemia, less than 0.0025 µM; with HOP-62 NSCLC, 0.00618 µM. Also, the GI50 was more than 25 µM in the assay on TK-10 renal, less than 0.0025 µM in the assay on CCRF-CEM leukemia and 0.0154 µM in the assay with UO-31 renal. In addition, the TGI was more than 25 µM in the assay with HCC-2998 colon; more than 25 µM in the assay on A549 NSCLC; more than 25 µM in the assay on SF-295 CNS; more than 25 µM in the assay on K-562 leukemia; less than 0.0025 µM in the assay with HL-60(TB) leukemia; more than 25 µM with HOP-62 NSCLC. Besides, the TGI in the assay on TK-10 renal, in the assay on CCRF-CEM leukemia and with UO-31 renal was more than 25 µM each time.
`ClCc1ccccc1CSc1ncnc2nc[nH]c12`: the GI50 with HCC-2998 colon, in the assay on SF-295 CNS, in the assay with CAKI-1 renal, with K-562 leukemia, in the assay on HOP-62 NSCLC and with CCRF-CEM leukemia was more than 60 µM in each case. The GI50 in the assay on UO-31 renal is more than 60 µM. Further, the TGI in the assay on HCC-2998 colon, in the assay with SF-295 CNS, with CAKI-1 renal, with K-562 leukemia, in the assay with HOP-62 NSCLC and in the assay on CCRF-CEM leukemia was more than 60 µM throughout. Further, in the assay with UO-31 renal, the TGI is more than 60 µM.
